Measurements: patent US11208404B2 (PERENNA PHARMACEUTICALS, INC., priority 2017, dated 2021)
Read-outs that look alike come from different tables or passages of the source.

Biological target: ALCAT1 (Homo sapiens (Human), UniProt Q6UWP7)
Assay: In vitro acyltransferase assay for ALCAT1 inhibitors
Type: biochemical
Details: for inhibition at 1 µM / % inh @ 1 μM: 1 μM compound; for IC50: ALCAT1 enzyme activity
Source text: The human ALCAT1 protein were expressed in Spodoptera frugiperda (Sf9) insect cells by using a Bac-to-Bac baculovirus expression system (Invitrogen) according to the manufacturer's instruction. High-titer recombinant baculovirus expressing the human ALCAT1 protein was generated by several rounds of viral amplification. The Sf9 cells were typically infected with recombinant baculovirus for 3 days, harvested in ice-cold phosphate-buffered saline (PBS), and homogenized in 20 mm NaCl by going through French press. The total cell lysates were centrifuged at 10,000×g for 1 hours at 4° C. to eliminate the nucleus fraction, followed by ultracentrifugation at 100,000×g to pallet the membrane fraction. The membrane fraction was resuspended in enzymatic buffer that contain 10% glycerol, quantified for protein concentration, aliquoted, and stored at −80° C.
ALCAT1 enzymatic activity was determined by measuring the conversion of monolysocardiolipin (MLCL) to cardiolipin or lysophosphatidylglycerol (LPG) to phosphatidylglycerol (PG) in an enzymatic reaction mixture that contained 50 mm Tris/HCl, pH 7.0, 100 μm lysophospholipids, 25 μm [^14C]acyl-CoA (50 mCi/mmol, American Radiolabeled Chemicals, Inc), and membrane fraction (0.5-2.5 μg) in a total volume of 200 μl. The reaction was incubated at room temperature for 30 min. The lipids were extracted will chloroform, dried, and separated by thin layer chromatography (TLC) with chloroform:hexane:methanol:acetic acid (50:30:10:5, v/v) or chloroform:methanol:water (65:25:4, v/v). After separation, TLC plates were exposed to a Phosphorlmager screen to visualize the radiolabeled products with a Molecular Dynamics Typhoon Scanner (Sunnyvale, Calif.). In some experiments, NBD-CoA was used at 100 μM to replace the [^14C]acyl-CoA in the enzymatic reaction. All quantitative data were expressed as mean±S.E. Statistical analyses for differences between two groups were carried out using a Student's t test.
Compound inhibitors for ALCAT1 enzyme were analyzed by an in vitro enzymatic assay as detailed above. Compound inhibitors were added to the enzymatic mixture at 1-20 μM concentrations before the start of the acyltransferase reaction.
Where multiple measurements were taken this is indicated by a “/” between multiple values.
IC50 values for each compound were analyzed in triplicates, and calculated by GraphPad software.

[1] = triplicates, GraphPad, read-out: IC50

Chain of ALCAT1 (Q6UWP7 whole entry): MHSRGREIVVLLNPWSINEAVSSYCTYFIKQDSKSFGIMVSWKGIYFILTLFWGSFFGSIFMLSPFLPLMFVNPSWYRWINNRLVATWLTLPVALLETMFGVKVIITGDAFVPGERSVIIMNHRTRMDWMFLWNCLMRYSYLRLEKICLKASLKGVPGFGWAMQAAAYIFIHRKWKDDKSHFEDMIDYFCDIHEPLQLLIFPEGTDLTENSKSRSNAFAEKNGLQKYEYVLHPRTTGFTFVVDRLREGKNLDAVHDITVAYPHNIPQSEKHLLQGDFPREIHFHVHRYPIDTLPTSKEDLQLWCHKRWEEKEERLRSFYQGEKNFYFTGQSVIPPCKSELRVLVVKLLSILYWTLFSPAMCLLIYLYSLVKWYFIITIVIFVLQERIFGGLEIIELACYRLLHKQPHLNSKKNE

`COc1ccc(C)cc1C(=O)Nc1cccc(-c2nnc(-c3ccco3)o2)c1` [Compound 197, N-(3-(5-(Furan-2-yl)-1,3,4-oxadiazol-2-yl)phenyl)-2-methoxy-5-methylbenzamide] was tested, and the inhibition at 1 µM (in vitro enzymatic assay) was 80%, the inhibition at 10 µM (10 μM compound, in vitro enzymatic assay) was 97% and the IC50 [1] was 0.079 µM.

`O=C(Nc1cccc(-c2nnc(-c3ccco3)o2)c1)c1cccc(Br)c1` [Compound 203] showed an IC50 [1] of 1.9 µM.

In the case of `CCCOc1ccc(C)cc1C(=O)Nc1cccc(-c2nnc(-c3ccco3)o2)c1` [Compound 207], the “% inh @ 1 μM” value (in vitro enzymatic assay) is reported as 87%, the inhibition at 1 µM (in vitro enzymatic assay) is reported as 86% and the IC50 [1] is reported as 0.19 µM.

With `O=C(Nc1cccc(-c2nnc(-c3ccco3)o2)c1)c1cc(OC(F)(F)F)ccc1F` [Compound 211, 2-Fluoro-N-(3-(5-(furan-2-yl)-1,3,4-oxadiazol-2-yl)phenyl)-5-(trifluoromethoxy)benzamide] the “% inh @ 1 μM” value (in vitro enzymatic assay) was 97%, the inhibition at 1 µM (in vitro enzymatic assay) was 95% and the IC50 [1] was 0.096 µM.

`O=C(Nc1cccc(-c2nnc(-c3ccco3)o2)c1)c1ccc2occc2c1` [Compound 212] gave an inhibition at 1 µM (in vitro enzymatic assay) of 26%.

In the case of `CCCCOc1ccccc1C(=O)Nc1cc(-c2nnc(-c3ccco3)o2)ccc1F` [Compound 213], the “% inh @ 1 μM” value (in vitro enzymatic assay) is reported as 64% and the inhibition at 1 µM (in vitro enzymatic assay) is reported as 56%.

`COc1ccc(F)c(C(=O)Nc2cccc(-c3nnc(-c4ccco4)o3)c2)c1` [Compound 214] was tested, and the “% inh @ 1 μM” value (in vitro enzymatic assay) was 76% and the inhibition at 1 µM (in vitro enzymatic assay) was 67%.

In the case of `CCOc1ccccc1C(=O)Nc1cc(-c2nnc(-c3ccco3)o2)ccc1F` [Compound 215, 2-Ethoxy-N-(2-fluoro-5-(5-(furan-2-yl)-1,3,4-oxadiazol-2-yl)phenyl)benzamide], the “% inh @ 1 μM” value (in vitro enzymatic assay) is reported as 100/100%, the inhibition at 1 µM (in vitro enzymatic assay) is reported as 100% and the IC50 (read-out: IC50 values (upper bounds)) is reported as < 0.1 µM. For the same molecule, the IC50 [1] was 0.026 µM.

For `CC(C)COc1ccccc1C(=O)Nc1cccc(-c2nnc(-c3ccco3)o2)c1` [Compound 217], the “% inh @ 1 μM” value (in vitro enzymatic assay) was 68% and the inhibition at 1 µM (in vitro enzymatic assay) was 69%.

For `CCOc1ccc(C)cc1C(=O)Nc1cccc(-c2nnc(-c3ccco3)o2)c1` [Compound 218, 2-Ethoxy-N-(3-(5-(furan-2-yl)-1,3,4-oxadiazol-2-yl)phenyl)-5-methylbenzamide], the “% inh @ 1 μM” value (in vitro enzymatic assay) was 98%, the inhibition at 1 µM (in vitro enzymatic assay) was 99% and the IC50 [1] was 0.067 µM.

In the case of `COc1c(F)cccc1C(=O)Nc1cccc(-c2nnc(-c3ccco3)o2)c1` [Compound 220], the “% inh @ 1 μM” value (in vitro enzymatic assay) is reported as 94%, the inhibition at 1 µM (in vitro enzymatic assay) is reported as 96% and the IC50 [1] is reported as 0.12 µM.

`O=C(Nc1cccc(-c2nnc(-c3ccco3)o2)c1)c1ccccc1OCC(F)(F)F` [Compound 223] was tested, and the “% inh @ 1 μM” value (in vitro enzymatic assay) was 90%, the inhibition at 1 µM (in vitro enzymatic assay) was 94% and the IC50 [1] was 0.15 µM.

With `Cc1ccc(OCC(F)(F)F)c(C(=O)Nc2cccc(-c3nnc(-c4ccco4)o3)c2)c1` [Compound 224] the “% inh @ 1 μM” value (in vitro enzymatic assay) was 97%, the inhibition at 1 µM (in vitro enzymatic assay) was 91% and the IC50 [1] was 0.19 µM.

For `O=C(Nc1cccc(-c2nnc(-c3ccco3)o2)c1)c1cc(Cl)ccc1OCC(F)(F)F` [Compound 225, 5-Chloro-N-(3-(5-(furan-2-yl)-1,3,4-oxadiazol-2-yl)phenyl)-2-(2,2,2-trifluoroethoxy)benzamide], the “% inh @ 1 μM” value (in vitro enzymatic assay) was 97%, the inhibition at 1 µM (in vitro enzymatic assay) was 92% and the IC50 [1] was 0.1 µM.

For `O=C(Nc1cccc(-c2nnc(-c3ccco3)o2)c1)c1cc(Br)ccc1OCC(F)(F)F` [Compound 226, 5-Bromo-N-(3-(5-(furan-2-yl)-1,3,4-oxadiazol-2-yl)phenyl)-2-(2,2,2-trifluoroethoxy)benzamide], the “% inh @ 1 μM” value (in vitro enzymatic assay) was 99%, the inhibition at 1 µM (in vitro enzymatic assay) was 100% and the IC50 [1] was 0.06 µM.

For `O=C(Nc1cccc(-c2nnc(-c3ccco3)o2)c1)c1cccc2ccoc12` [Compound 227], the “% inh @ 1 μM” value (in vitro enzymatic assay) was 89%, the inhibition at 1 µM (in vitro enzymatic assay) was 85% and the IC50 [1] was 0.16 µM.

For `O=C(Nc1cccc(-c2nnc(-c3ccco3)o2)c1)c1cc(F)ccc1OCC(F)(F)F` [Compound 228, 5-Fluoro-N-(3-(5-(furan-2-yl)-1,3,4-oxadiazol-2-yl)phenyl)-2-(2,2,2-trifluoroethoxy)benzamide], the “% inh @ 1 μM” value (in vitro enzymatic assay) was 99%, the inhibition at 1 µM (in vitro enzymatic assay) was 100% and the IC50 [1] was 0.072 µM.

With `O=C(Nc1cc(Cl)ccc1F)c1cccc(-c2nnc(-c3ccco3)o2)c1` [Compound 229] the “% inh @ 1 μM” value (in vitro enzymatic assay) was 97/97%, the inhibition at 1 µM (in vitro enzymatic assay) was 97% and the IC50 [1] was 0.17 µM.

For `COc1ccc(Cl)cc1NC(=O)c1cccc(-c2nnc(-c3ccco3)o2)c1` [Compound 230], the “% inh @ 1 μM” value (in vitro enzymatic assay) was 89%, the inhibition at 1 µM (in vitro enzymatic assay) was 94% and the IC50 [1] was 0.41 µM.

For `O=C(Nc1cccc(-c2nnc(-c3ccco3)o2)c1)c1ccccc1OC(F)(F)F` [Compound 232], the “% inh @ 1 μM” value (in vitro enzymatic assay) was 61/61% and the inhibition at 1 µM (in vitro enzymatic assay) was 61%.

In the case of `O=C(Nc1cccc(-c2nnc(-c3ccco3)o2)c1)c1cccc(OC(F)(F)F)c1` [Compound 233], the “% inh @ 1 μM” value (in vitro enzymatic assay) is reported as 65% and the inhibition at 1 µM (in vitro enzymatic assay) is reported as 68%.

For `O=C(Nc1cccc(-c2nnc(-c3ccco3)o2)c1)c1cccc(C(F)(F)F)c1` [Compound 234], the “% inh @ 1 μM” value (in vitro enzymatic assay) was 42% and the inhibition at 1 µM (in vitro enzymatic assay) was 46%.

Molecule `O=C(Nc1cccc(-c2nnc(-c3ccco3)o2)c1)c1cccnc1` [Compound 235] has an inhibition at 1 µM (in vitro enzymatic assay) of 12%.

For `O=C(Nc1cccc(-c2nnc(-c3ncco3)o2)c1)c1ccccc1F` [Compound 236], the “% inh @ 1 μM” value (in vitro enzymatic assay) was 8% and the inhibition at 1 µM (in vitro enzymatic assay) was 7%.

For `O=C(Nc1cccc(-c2nnc(-c3ccco3)o2)c1)c1ccncc1` [Compound 237], the “% inh @ 1 μM” value (in vitro enzymatic assay) was 46% and the inhibition at 1 µM (in vitro enzymatic assay) was 35%.

`O=C(Nc1cccc(-c2nnc(-c3ccco3)o2)c1)c1cccc(-c2ccccc2)c1` [Compound 238] was tested, and the “% inh @ 1 μM” value (in vitro enzymatic assay) was 23/23% and the inhibition at 1 µM (in vitro enzymatic assay) was 23%.

In the case of `CCc1ccccc1C(=O)Nc1cccc(-c2nnc(-c3ccco3)o2)c1` [Compound 240], the “% inh @ 1 μM” value (in vitro enzymatic assay) is reported as 6% and the inhibition at 1 µM (in vitro enzymatic assay) is reported as 12%.

With `CS(=O)(=O)c1ccccc1C(=O)Nc1cccc(-c2nnc(-c3ccco3)o2)c1` [Compound 248] the “% inh @ 1 μM” value (in vitro enzymatic assay) was 50% and the inhibition at 1 µM (in vitro enzymatic assay) was 30%.

With `Cc1ccc(F)c(NC(=O)c2cccc(-c3nnc(-c4ccco4)o3)c2)c1` [Compound 271] the “% inh @ 1 μM” value (in vitro enzymatic assay) was 84%, the inhibition at 1 µM (in vitro enzymatic assay) was 83% and the IC50 [1] was 0.78 µM.

`O=C(Nc1cccc(-c2nnc(-c3ccco3)o2)c1)c1ccccc1OC(F)F` [Compound 273] was tested, and the “% inh @ 1 μM” value (in vitro enzymatic assay) was 96%, the inhibition at 1 µM (in vitro enzymatic assay) was 97% and the IC50 [1] was 0.12 µM.

In the case of `O=C(Nc1cccc(-c2nnc(-c3ccco3)o2)c1)c1ccccc1OCC(F)F` [Compound 275], the “% inh @ 1 μM” value (in vitro enzymatic assay) is reported as 99%, the inhibition at 1 µM (in vitro enzymatic assay) is reported as 98% and the IC50 [1] is reported as 0.2 µM.

`CC(C)c1cccc(C(=O)Nc2cccc(-c3nnc(-c4ccco4)o3)c2)c1` [Compound 277] was tested, and the “% inh @ 1 μM” value (in vitro enzymatic assay) was 23/23% and the inhibition at 1 µM (in vitro enzymatic assay) was 23%.

In the case of `COc1ccc(C(F)(F)F)cc1C(=O)Nc1cccc(-c2nnc(-c3ccco3)o2)c1` [Compound 278], the “% inh @ 1 μM” value (in vitro enzymatic assay) is reported as 100%, the inhibition at 1 µM (in vitro enzymatic assay) is reported as 97% and the IC50 [1] is reported as 0.12 µM.

`CCc1ccc(OC)c(C(=O)Nc2cccc(-c3nnc(-c4ccco4)o3)c2)c1` [Compound 280] was tested, and the “% inh @ 1 μM” value (in vitro enzymatic assay) was 100%, the inhibition at 1 µM (in vitro enzymatic assay) was 94% and the IC50 [1] was 0.12 µM.

`O=C(Nc1cccc(-c2nnc(-c3ccco3)o2)c1)c1cc(Cl)ccc1OCC(F)F` [Compound 286] was tested, and the IC50 [1] was 0.12 µM.

`O=C(Nc1cc(-c2ncc(-c3ccco3)o2)ccc1F)c1cccnc1F` [Compound 288] was tested, and the “% inh @ 1 μM” value (in vitro enzymatic assay) was 59% and the inhibition at 1 µM (in vitro enzymatic assay) was 48%.

In the case of `O=C(Nc1cc(-c2nnc(-c3cncs3)o2)ccc1F)c1ccccc1F` [Compound 290, 2-fluoro-N-(2-fluoro-5-(5-(thiazol-5-yl)-1,3,4-oxadiazol-2-yl)phenyl)benzamide], the “% inh @ 1 μM” value (in vitro enzymatic assay) is reported as 31% and the inhibition at 1 µM (in vitro enzymatic assay) is reported as 24%.

For `O=C(Nc1cccc(-c2nnc(-c3cncs3)o2)c1)c1ccccc1F` [Compound 292], the “% inh @ 1 μM” value (in vitro enzymatic assay) was 12% and the inhibition at 1 µM (in vitro enzymatic assay) was 14%.

`O=C(Nc1cc(Cl)cc(-c2nnc(-c3ccco3)o2)c1)c1ccccc1F` [Compound 295] showed an inhibition at 1 µM (in vitro enzymatic assay) of 37%.

For `O=C(Nc1cccc(-c2nnc(-c3ccco3)o2)c1)c1cccc2c1OCCC2` [Compound 296], the “% inh @ 1 μM” value (in vitro enzymatic assay) was 73% and the inhibition at 1 µM (in vitro enzymatic assay) was 55%.

For `O=C(Nc1cccc(-c2nnc(-c3ccco3)o2)c1Cl)c1ccccc1F` [Compound 297], the “% inh @ 1 μM” value (in vitro enzymatic assay) was 83%, the inhibition at 1 µM (in vitro enzymatic assay) was 75% and the IC50 [1] was 0.29 µM.

For `O=C(Nc1cccc(-c2nnc(-c3cc[nH]n3)o2)c1)c1ccccc1F` [Compound 298, N-(3-(5-(1H-pyrazol-3-yl)-1,3,4-oxadiazol-2-yl)phenyl)-2-fluorobenzamide], the inhibition at 1 µM (in vitro enzymatic assay) was 15%.

Molecule `O=C(Nc1cc(-c2nnc(-c3ccco3)o2)ccc1F)c1ccccc1OC(F)(F)F` [Compound 301, N-(2-Fluoro-5-(5-(furan-2-yl)-1,3,4-oxadiazol-2-yl)phenyl)-2-(trifluoromethoxy)benzamide] has an IC50 [1] of 0.1 µM.

`O=C(Nc1cc(-c2nnc(-c3ccco3)s2)ccc1F)c1ccccc1F` [Compound 325] gave an inhibition at 1 µM (in vitro enzymatic assay) of 63%.

`O=C(Nc1cc(-c2nnc(-c3ccco3)o2)ccc1F)c1ccc2c(c1)COC2` [Compound 331] showed an inhibition at 1 µM (in vitro enzymatic assay) of 12%.
